The results in this text go back to US10689354B2, “Aminoazole derivative” (Teijin Pharma Limited, priority 2015, dated 2020).

Assay [1] has as its target T1, androgen receptor (AR-LBD) (Rattus norvegicus, UniProt P15207).
T1 construct: 5 μL of 2×AR-LBD/Fluoromone AL Red Complex contained in the kit; purchased Invitrogen
T1 sequence (P15207 651-882 limits assumed): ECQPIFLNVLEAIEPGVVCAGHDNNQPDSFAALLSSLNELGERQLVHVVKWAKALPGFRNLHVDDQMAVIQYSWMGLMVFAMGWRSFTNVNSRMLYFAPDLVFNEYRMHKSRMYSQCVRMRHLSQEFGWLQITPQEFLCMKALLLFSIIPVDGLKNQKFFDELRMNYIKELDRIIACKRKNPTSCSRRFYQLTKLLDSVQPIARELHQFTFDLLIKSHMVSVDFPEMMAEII
The assay is described as follows: Evaluation of androgen receptor affinity (PolarScreen Androgen Receptor Competitor Assay Kit, Red; fluorescence polarization). The settings on record: 22° C. for 5 hours, relative to binding rate of 1 μM DHT, read-out: AR affinity (pEC50) (converted). Summed up: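 Fluorescence polarization read-out after 5 h at 22° C of compound with a red-fluorophore-labelled AR-LBD complex. Displacement is scaled against 1 μM DHT, and the log reciprocal of the concentration reaching half that effect gives pEC50 via four-parameter curve fitting.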

In the next assay the target is T2, human androgen receptor (Homo sapiens, UniProt P10275).
T2 construct: expressed in transfected cells; host or cells: HEK293
T2 sequence (P10275 1-920): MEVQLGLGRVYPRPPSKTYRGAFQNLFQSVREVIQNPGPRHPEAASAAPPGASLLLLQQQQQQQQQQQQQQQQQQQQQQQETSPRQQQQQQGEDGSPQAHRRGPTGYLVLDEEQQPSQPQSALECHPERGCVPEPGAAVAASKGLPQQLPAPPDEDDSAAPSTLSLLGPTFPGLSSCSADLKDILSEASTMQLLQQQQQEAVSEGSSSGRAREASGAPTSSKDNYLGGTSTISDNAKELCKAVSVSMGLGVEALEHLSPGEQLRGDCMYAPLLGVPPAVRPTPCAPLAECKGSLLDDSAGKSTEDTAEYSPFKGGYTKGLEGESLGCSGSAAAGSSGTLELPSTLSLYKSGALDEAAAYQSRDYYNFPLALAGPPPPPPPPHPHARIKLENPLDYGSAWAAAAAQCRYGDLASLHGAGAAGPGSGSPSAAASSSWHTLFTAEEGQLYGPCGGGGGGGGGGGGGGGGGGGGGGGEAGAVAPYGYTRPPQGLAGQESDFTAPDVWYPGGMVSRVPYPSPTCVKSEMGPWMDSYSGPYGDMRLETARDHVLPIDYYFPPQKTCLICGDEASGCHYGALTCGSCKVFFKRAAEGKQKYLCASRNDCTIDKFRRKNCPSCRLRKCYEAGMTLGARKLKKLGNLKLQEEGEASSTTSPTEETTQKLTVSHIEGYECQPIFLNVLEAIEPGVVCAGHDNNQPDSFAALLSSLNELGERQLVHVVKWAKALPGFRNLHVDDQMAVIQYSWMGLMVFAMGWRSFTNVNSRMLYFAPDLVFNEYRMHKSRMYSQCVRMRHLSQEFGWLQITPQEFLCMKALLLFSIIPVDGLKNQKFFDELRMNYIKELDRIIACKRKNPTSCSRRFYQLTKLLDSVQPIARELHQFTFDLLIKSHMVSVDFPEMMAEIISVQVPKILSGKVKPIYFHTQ
The assay is described as follows: Reporter assay of an androgen receptor responsive sequence (luciferase, transiently transfected HEK293 cells). The assay is classed as cell-based. The settings on record: 24 hours incubation, relative to activity of 100 nM DHT, read-out: AR transcriptive activity (pEC50) (converted). Summed up: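 HEK293 cells transiently transfected for 3 h with ARE-firefly luciferase, full-length human AR and TK-Renilla plasmids, then exposed to compound for 24 h at 37 °C in 5% charcoal-treated FBS/DMEM. Dual-Glo luminescence read; pEC50 from 4-parameter fit relative to 100 nM DHT.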
In general terms: In a reporter assay the amount or activity of a reporter protein is the signal.

`Cc1sc(N(Cc2c(F)cccc2F)c2ccc(C#N)cc2)nc1C(=O)NS(C)(=O)=O` [Compound 124, 2-[4-cyano-N-[(2,6-difluorophenyl)methyl]anilino]-5-methyl-N-methylsulfonyl-thiazole-4-carboxamide]: the EC50 was 63.1 nM in assay [1] and 631 nM on human androgen receptor.
In the case of `Cc1sc(N(Cc2cc(F)c(F)c(F)c2)c2ccc(C#N)cc2)nc1C(=O)NS(C)(=O)=O` [Compound 125, 2-[4-cyano-N-[(3,4,5-trifluorophenyl)methyl]anilino]-5-methyl-N-methylsulfonyl-thiazole-4-carboxamide], the EC50 in assay [1] is 31.6 nM; on human androgen receptor it was 126 nM.
In the same order, the values of `Cc1sc(N(Cc2cc(Cl)ccc2F)c2ccc(C#N)cc2)nc1C(=O)NS(C)(=O)=O` [Compound 126, 2-[N-[(5-chloro-2-fluoro-phenyl)methyl]-4-cyano-anilino]-5-methyl-N-methylsulfonyl-thiazole-4-carboxamide] are 63.1 nM and 794 nM.
On the same counts, the results for `Cc1sc(N(Cc2ccc3c(c2)OCO3)c2ccc(C#N)cc2)nc1C(=O)NS(C)(=O)=O` [Compound 128, 2-[N-(1,3-benzodioxol-5-ylmethyl)-4-cyano-anilino]-5-methyl-N-methylsulfonyl-thiazole-4-carboxamide] are 39.8 nM and 100 nM.
In the case of `Cc1sc(N(Cc2ccc(Br)cc2)c2ccc(C#N)cc2)nc1C(=O)NS(C)(=O)=O` [Compound 129, 2-[N-[(4-bromophenyl)methyl]-4-cyano-anilino]-5-methyl-N-methylsulfonyl-thiazole-4-carboxamide], the EC50 is 39.8 nM in assay [1] and 20 nM on human androgen receptor.
On the same counts, the results for `Cc1sc(N(CCc2cccs2)c2ccc(C#N)cc2)nc1C(=O)NS(C)(=O)=O` [Compound 131, 2-[4-cyano-N-[2-(2-thienyl)ethyl]anilino]-5-methyl-N-methylsulfonyl-thiazole-4-carboxamide] are 251 nM and 1000 nM.
In the same order, the values of `Cc1sc(N(CCc2ccsc2)c2ccc(C#N)cc2)nc1C(=O)NS(C)(=O)=O` [Compound 132, 2-[4-cyano-N-[2-(3-thienyl)ethyl]anilino]-5-methyl-N-methylsulfonyl-thiazole-4-carboxamide] are 316 nM and 1580 nM.
As to `Cc1sc(N(CCc2ccc(Cl)cc2)c2ccc(C#N)cc2)nc1C(=O)NS(C)(=O)=O` [Compound 133, 2-[N-[2-(4-chlorophenyl)ethyl]-4-cyano-anilino]-5-methyl-N-methylsulfonyl-thiazole-4-carboxamide], the EC50 in assay [1] was 158 nM; on human androgen receptor, 1580 nM.
For `Cc1sc(N(Cc2ccc3c(c2)C(=O)CCO3)c2ccc(C#N)cc2)nc1C(=O)NS(C)(=O)=O` [Compound 138, 2-[4-cyano-N-[(4-oxochroman-6-yl)methyl]anilino]-5-methyl-N-methylsulfonyl-thiazole-4-carboxamide], the figures for the EC50 (in assay [1]; at human androgen receptor) were 100 nM and 251 nM, respectively.
Regarding `Cc1sc(N(CCc2cccc(Cl)c2)c2ccc(C#N)cc2)nc1C(=O)NS(C)(=O)=O` [Compound 139, 2-[N-[2-(3-chlorophenyl)ethyl]-4-cyano-anilino]-5-methyl-N-methylsulfonyl-thiazole-4-carboxamide], the results for the EC50 (in assay [1]; on human androgen receptor) were 79.4 nM and 1580 nM, respectively.
On to `Cc1sc(N(CCc2ccccc2Cl)c2ccc(C#N)cc2)nc1C(=O)NS(C)(=O)=O` [Compound 140, 2-[N-[2-(2-chlorophenyl)ethyl]-4-cyano-anilino]-5-methyl-N-methylsulfonyl-thiazole-4-carboxamide], for which the values for the EC50 (in assay [1]; at human androgen receptor) were 100 nM and 794 nM, respectively.
In the same order, the values of `Cc1sc(N(Cc2ccc(-c3ccc(F)cc3)cc2)c2ccc(C#N)cc2)nc1C(=O)NS(C)(=O)=O` [Compound 141, 2-[4-cyano-N-[[4-(4-fluorophenyl)phenyl]methyl]anilino]-5-methyl-N-methylsulfonyl-thiazole-4-carboxamide] are 50.1 nM and 316 nM.
In the same order, the values of `Cc1sc(N(CCc2ccc(Cl)cc2)Cc2cccc(F)c2)nc1C(=O)NS(C)(=O)=O` [Compound 143, 2-[2-(4-chlorophenyl)ethyl-[(3-fluorophenyl)methyl]amino]-5-methyl-N-methylsulfonyl-thiazole-4-carboxamide] are 25.1 nM and 50.1 nM.
In the same order, the values of `Cc1sc(N(CCc2ccc(Cl)cc2)Cc2cccc(Cl)c2)nc1C(=O)NS(C)(=O)=O` [Compound 144, 2-[2-(4-chlorophenyl)ethyl-[(3-chlorophenyl)methyl]amino]-5-methyl-N-methylsulfonyl-thiazole-4-carboxamide] are 25.1 nM and 63.1 nM.
`Cc1sc(N(CCc2ccc(Cl)cc2)Cc2cccc(OC(F)(F)F)c2)nc1C(=O)NS(C)(=O)=O` [Compound 145, 2-[2-(4-chlorophenyl)ethyl-[[3-(trifluoromethoxy)phenyl]methyl]amino]-5-methyl-N-methylsulfonyl-thiazole-4-carboxamide]: the figures for the EC50 (in assay [1]; at human androgen receptor) were 50.1 nM and 316 nM, respectively.
On the same counts, the results for `Cc1sc(N(CCc2cccnc2)Cc2ccccc2)nc1C(=O)NS(C)(=O)=O` [Compound 147, 2-[benzyl-[2-(3-pyridyl)ethyl]amino]-5-methyl-N-methylsulfonyl-thiazole-4-carboxamide] are > 2000 nM and > 10000 nM.
In the same order, the values of `Cc1sc(N(CCc2ccc(F)c(F)c2)Cc2ccccc2)nc1C(=O)NS(C)(=O)=O` [Compound 148, 2-[benzyl-[2-(3,4-difluorophenyl)ethyl]amino]-5-methyl-N-methylsulfonyl-thiazole-4-carboxamide] are 25.1 nM and 100 nM.
On the same counts, the results for `Cc1sc(N(Cc2ccc(Cl)cn2)c2ccc(C#N)cc2)nc1C(=O)NS(C)(=O)=O` [Compound 152, 2-[N-[(5-chloro-2-pyridyl)methyl]-4-cyano-anilino]-5-methyl-N-methylsulfonyl-thiazole-4-carboxamide] are 200 nM and 100 nM.
Turning to `Cc1sc(N(Cc2ccc(Br)cn2)c2ccc(C#N)cc2)nc1C(=O)NS(C)(=O)=O` [Compound 153, 2-[N-[(5-bromo-2-pyridyl)methyl]-4-cyano-anilino]-5-methyl-N-methylsulfonyl-thiazole-4-carboxamide], the EC50 in assay [1] is 100 nM; at human androgen receptor, 50.1 nM.
In the same order, the values of `Cc1sc(N(Cc2ccc(C(F)(F)F)nc2)c2ccc(C#N)cc2)nc1C(=O)NS(C)(=O)=O` [Compound 154, 2-[4-cyano-N-[[6-(trifluoromethyl)-3-pyridyl]methyl]anilino]-5-methyl-N-methylsulfonyl-thiazole-4-carboxamide] are 200 nM and 200 nM.
On the same counts, the results for `Cc1sc(N(Cc2ccc(C(F)F)c(F)c2)c2ccc(C#N)cc2)nc1C(=O)NS(C)(=O)=O` [Compound 155, 2-[4-cyano-N-[[4-(difluoromethyl)-3-fluoro-phenyl]methyl]anilino]-5-methyl-N-methylsulfonyl-thiazole-4-carboxamide] are 31.6 nM and 15.8 nM.
In the same order, the values of `Cc1sc(N(Cc2ccc(C(F)F)cc2F)c2ccc(C#N)cc2)nc1C(=O)NS(C)(=O)=O` [Compound 156, 2-[4-cyano-N-[[4-(difluoromethyl)-2-fluoro-phenyl]methyl]anilino]-5-methyl-N-methylsulfonyl-thiazole-4-carboxamide] are 39.8 nM and 63.1 nM.
